Data reported in patent US8314092B2, “Substituted [(5H-pyrrolo[2,1-c][1,4]benzodiazepin-11-yl)piperazin-1-yl]-2,2-dimethylpropanoic acid compounds as dual activity H1 inverse agonists/5-HT2A antagonists” (Eli Lilly and Company, priority 2011, dated 2012).
Counter-ions that a name gives are not always drawn.

What was measured:
5-HT2B receptors = 5-HT2B receptors (Homo sapiens, UniProt P41595); assay: 5-HT2B agonist functional activity assay; type: cell-based
From the text: (§1) Further, the compounds of the invention may be tested in binding assays and functional activity assays by well known methods for other physiologically important receptors such as, but not limited to, the hERG channel, other serotonin receptors (specifically 5-HT1A, 5-HT1B, 5-HT1D, 5-HT1E, 5-HT1F receptors, lack of agonist activity at 5-HT2B receptors, 5-HT2C, 5-HT4, 5-HTS, 5-HT6, and 5-HT7 receptors), muscarinic receptors, dopaminergic receptors (specifically D1, D2, and D3), GABAA receptors, adrenergic receptors and monoamine transporters. Certain exemplified compounds are tested at these receptors and are shown to lack significant activity.

Dopamine D3 = Dopamine D3 (Homo sapiens, UniProt P35462); assay: Dopamine D3 binding
Sequence of Dopamine D3 (P35462 whole entry): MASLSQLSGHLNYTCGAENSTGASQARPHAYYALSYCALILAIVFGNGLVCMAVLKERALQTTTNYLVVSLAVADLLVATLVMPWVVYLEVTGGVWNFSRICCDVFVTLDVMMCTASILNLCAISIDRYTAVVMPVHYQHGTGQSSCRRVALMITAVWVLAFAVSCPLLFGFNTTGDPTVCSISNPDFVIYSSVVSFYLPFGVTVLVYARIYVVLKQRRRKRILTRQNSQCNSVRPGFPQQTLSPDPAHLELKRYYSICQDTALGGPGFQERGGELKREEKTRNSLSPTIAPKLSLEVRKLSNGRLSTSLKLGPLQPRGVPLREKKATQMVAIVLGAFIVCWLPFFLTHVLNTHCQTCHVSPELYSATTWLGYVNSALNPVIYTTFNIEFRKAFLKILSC
From the text: as §1

5-HT1E = 5-HT1E (Homo sapiens, UniProt P28566); assay: 5-HT1E binding
Sequence of 5-HT1E (P28566 whole entry, species assumed): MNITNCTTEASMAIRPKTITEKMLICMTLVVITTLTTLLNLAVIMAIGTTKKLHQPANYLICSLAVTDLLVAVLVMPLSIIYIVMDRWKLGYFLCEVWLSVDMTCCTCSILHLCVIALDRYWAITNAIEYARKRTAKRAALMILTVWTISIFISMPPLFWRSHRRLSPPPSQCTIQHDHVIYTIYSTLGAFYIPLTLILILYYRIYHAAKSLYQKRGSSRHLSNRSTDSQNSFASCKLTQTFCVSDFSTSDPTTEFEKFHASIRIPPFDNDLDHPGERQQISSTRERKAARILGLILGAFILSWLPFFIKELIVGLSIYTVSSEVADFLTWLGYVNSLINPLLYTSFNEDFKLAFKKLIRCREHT
From the text: as §1

5-HT7 = 5-HT7 (Homo sapiens, UniProt P34969); assay: 5-HT7 binding
Sequence of 5-HT7 (P34969 whole entry, species assumed): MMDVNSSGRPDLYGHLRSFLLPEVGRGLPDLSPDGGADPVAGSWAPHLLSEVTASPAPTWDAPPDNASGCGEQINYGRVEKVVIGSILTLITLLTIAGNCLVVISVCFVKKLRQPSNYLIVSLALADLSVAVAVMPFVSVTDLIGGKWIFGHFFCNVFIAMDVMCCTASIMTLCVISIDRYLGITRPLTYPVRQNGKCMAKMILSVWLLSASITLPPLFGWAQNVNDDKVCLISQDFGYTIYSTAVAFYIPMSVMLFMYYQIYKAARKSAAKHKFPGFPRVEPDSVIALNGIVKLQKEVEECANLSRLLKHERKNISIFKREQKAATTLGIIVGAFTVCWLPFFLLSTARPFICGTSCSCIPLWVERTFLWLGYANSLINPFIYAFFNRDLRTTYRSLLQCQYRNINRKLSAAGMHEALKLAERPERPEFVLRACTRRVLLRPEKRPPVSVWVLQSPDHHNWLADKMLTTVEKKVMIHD
From the text: as §1

Adrenergic alpha2A = Adrenergic alpha2A (Homo sapiens, UniProt P08913); assay: Adrenergic alpha2A binding
Sequence of Adrenergic alpha2A (P08913 whole entry): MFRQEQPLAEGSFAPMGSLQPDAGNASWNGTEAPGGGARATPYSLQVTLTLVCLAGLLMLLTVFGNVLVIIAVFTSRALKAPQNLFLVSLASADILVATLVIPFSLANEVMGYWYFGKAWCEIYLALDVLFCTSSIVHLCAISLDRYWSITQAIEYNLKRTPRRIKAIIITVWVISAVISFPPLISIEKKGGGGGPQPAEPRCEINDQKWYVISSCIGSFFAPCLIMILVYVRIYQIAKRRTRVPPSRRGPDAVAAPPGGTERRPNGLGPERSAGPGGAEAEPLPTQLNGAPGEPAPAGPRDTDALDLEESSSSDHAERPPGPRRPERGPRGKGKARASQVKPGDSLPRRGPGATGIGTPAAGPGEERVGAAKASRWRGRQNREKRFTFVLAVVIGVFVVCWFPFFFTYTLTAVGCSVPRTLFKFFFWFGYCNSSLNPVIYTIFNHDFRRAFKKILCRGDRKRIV
From the text: as §1

Adrenergic alpha2B = Adrenergic alpha2B (Homo sapiens, UniProt P18089); assay: Adrenergic alpha2B binding
Sequence of Adrenergic alpha2B (P18089 whole entry): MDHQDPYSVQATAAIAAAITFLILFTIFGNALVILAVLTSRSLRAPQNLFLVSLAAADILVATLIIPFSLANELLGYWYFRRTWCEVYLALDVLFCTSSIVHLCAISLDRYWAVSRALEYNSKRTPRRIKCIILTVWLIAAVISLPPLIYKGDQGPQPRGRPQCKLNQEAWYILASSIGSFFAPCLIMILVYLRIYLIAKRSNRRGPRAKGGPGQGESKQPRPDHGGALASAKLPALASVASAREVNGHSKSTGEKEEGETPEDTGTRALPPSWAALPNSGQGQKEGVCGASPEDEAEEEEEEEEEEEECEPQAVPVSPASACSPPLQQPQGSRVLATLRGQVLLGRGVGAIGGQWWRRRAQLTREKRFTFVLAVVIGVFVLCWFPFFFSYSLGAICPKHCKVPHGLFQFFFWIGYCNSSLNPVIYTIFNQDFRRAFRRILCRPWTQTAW
From the text: as §1

Adrenergic alpha2C = Adrenergic alpha2C (Homo sapiens, UniProt P18825); assay: Adrenergic alpha2C binding
Sequence of Adrenergic alpha2C (P18825 whole entry): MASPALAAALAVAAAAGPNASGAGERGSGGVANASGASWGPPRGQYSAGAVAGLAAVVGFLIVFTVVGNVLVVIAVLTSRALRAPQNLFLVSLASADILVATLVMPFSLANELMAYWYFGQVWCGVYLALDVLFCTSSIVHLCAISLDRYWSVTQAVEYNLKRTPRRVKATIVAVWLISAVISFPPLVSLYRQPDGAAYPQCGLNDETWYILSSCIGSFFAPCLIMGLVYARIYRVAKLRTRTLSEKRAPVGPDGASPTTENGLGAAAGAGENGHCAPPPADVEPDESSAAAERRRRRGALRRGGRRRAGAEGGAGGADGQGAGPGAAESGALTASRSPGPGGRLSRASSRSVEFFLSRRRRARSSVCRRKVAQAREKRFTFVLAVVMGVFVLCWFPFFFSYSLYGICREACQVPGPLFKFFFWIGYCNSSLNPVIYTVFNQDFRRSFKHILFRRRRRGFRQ
From the text: as §1

Norepinephrine Transport = Norepinephrine Transport (Homo sapiens, UniProt P23975); assay: Norepinephrine transporter assay; type: binding; details: dihydrochloride
Sequence of Norepinephrine Transport (P23975 whole entry): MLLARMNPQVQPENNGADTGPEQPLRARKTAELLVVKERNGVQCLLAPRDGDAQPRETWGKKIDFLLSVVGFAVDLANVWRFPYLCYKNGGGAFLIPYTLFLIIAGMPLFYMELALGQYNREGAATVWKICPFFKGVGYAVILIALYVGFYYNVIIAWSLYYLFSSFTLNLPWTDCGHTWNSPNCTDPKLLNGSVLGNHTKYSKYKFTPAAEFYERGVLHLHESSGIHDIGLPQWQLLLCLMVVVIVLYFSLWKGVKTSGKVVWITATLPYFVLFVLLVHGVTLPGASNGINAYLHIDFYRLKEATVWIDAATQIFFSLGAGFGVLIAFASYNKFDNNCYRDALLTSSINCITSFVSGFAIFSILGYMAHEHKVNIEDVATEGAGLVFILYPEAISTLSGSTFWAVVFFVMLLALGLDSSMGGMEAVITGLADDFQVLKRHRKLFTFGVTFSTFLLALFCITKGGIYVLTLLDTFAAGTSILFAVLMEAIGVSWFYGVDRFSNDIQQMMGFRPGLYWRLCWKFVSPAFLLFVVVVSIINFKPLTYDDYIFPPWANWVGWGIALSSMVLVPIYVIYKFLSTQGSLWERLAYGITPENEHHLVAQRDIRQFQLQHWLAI
From the text: as §1

H1 receptor = biological target: T1, H1 receptor (Rattus norvegicus, UniProt P31390); assay: Histamine H1 receptor occupancy in vivo (doxepin tracer); details: oral gavage, 1 hour before tracer, read-out: H1 RO EC50
T1 construct: from tissue; host or cells: living rat; frontal cortex
T1 sequence (P31390 whole entry): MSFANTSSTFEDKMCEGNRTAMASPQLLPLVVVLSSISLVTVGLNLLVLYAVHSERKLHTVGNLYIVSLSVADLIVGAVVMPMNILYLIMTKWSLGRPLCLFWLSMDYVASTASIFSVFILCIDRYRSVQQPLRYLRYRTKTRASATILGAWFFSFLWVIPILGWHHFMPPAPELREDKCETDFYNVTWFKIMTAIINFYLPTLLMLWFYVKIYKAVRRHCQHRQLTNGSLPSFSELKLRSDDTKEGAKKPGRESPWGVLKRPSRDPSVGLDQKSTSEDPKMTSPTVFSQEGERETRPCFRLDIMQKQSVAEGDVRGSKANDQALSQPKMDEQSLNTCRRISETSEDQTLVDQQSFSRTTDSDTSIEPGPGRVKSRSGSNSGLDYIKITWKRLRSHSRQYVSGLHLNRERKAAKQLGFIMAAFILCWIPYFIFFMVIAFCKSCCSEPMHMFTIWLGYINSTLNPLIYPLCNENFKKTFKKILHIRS
Method: Statistical Methods: Curves for each study are fitted to a 4 parameter logistic function with the bottom fixed at 0% using JMP® version 8.0 (SAS Institute Inc, Cary N.C.) and the absolute ED50 is calculated by the software. Values are given as means, standard errors and 95% confidence intervals. […] Briefly, male Sprague-Dawley rats (Harlan Sprague-Dawley, Indianapolis, Ind.) weighing approximately 230-280 grams are given ad lib access to food and water until the beginning of the 3-hour experimental protocol. 3-[4-(8-Fluorodibenzo[b,f][1,4]oxazepin-1′-yl)piperazin-1-yl]-2,2-dimethylpropanoic acid dihydrochloride is used as a positive control and doxepin is used as a tracer. Test compounds and control are administered by oral gavage in a vehicle comprised of 20% hydroxypropyl beta-cyclodextrin. Doxepin is dissolved in sterile water (100 μg/ml), diluted to 2 μg/ml with saline, and administered in a volume of 0.5 mL/kg intravenously via the lateral tail vein to yield a tracer dose of 1 μg/kg. Rats are administered test compound, 15 mg/kg positive control, or vehicle, followed 1 hour later by an intravenous “tracer” dose of doxepin (N=4). It is at the time of tracer administration that RO is considered to be measured. 40 mins after tracer administration, rats are sacrificed by cervical dislocation. Plasma samples are collected and the frontal cortex is removed. […]

Sequence of 5-HT2B receptors (P41595 whole entry): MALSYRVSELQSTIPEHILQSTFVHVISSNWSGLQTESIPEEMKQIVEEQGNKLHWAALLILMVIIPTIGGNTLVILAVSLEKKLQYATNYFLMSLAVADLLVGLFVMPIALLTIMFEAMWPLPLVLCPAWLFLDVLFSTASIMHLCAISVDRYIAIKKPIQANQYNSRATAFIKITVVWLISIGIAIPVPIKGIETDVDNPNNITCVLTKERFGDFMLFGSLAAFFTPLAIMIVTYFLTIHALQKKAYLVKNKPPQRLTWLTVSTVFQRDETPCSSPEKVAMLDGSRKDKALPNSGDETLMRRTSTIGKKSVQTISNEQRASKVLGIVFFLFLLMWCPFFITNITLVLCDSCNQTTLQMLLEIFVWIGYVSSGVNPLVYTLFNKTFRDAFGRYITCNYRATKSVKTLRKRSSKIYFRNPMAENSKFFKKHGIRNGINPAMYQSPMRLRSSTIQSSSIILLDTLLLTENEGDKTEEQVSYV

`Cc1cc2n(c1)Cc1cc(Cl)ccc1N=C2N1CCN(CC(C)(C)C(=O)O)CC1` [Example 13, 3-[4-(7-Chloro-2-methyl-5H-pyrrolo[2,1-c][1,4]benzodiazepin-11-yl)piperazin-1-yl]-2,2-dimethylpropanoic acid dihydrochloride] was tested, and the EC50 (5-HT2B receptors) was > 10 µM, the Ki (Dopamine D3) was > 4.11 µM and the Ki (5-HT1E) was > 5.37 µM. For the same compound, the Ki (5-HT7) was > 3.97 µM, the Ki (Adrenergic alpha2A) was > 8.47 µM and the Ki (Adrenergic alpha2B) was > 4.8 µM. The Ki (Adrenergic alpha2C) was > 5.33 µM, the “Norepinephrine Transport” value (Norepinephrine Transport) was >526 and the ED50 (H1 receptor) was 0.3 mg/kg.
